From patent US20090061515A1, “Methods of inhibiting or suppressing cellular proliferation” (priority 2007, published 2009) come the findings set out here.

Holding throughout (assay type): cell-based
Assay [1] has as its system Normal Human Dermal Fibroblast (NHDF) cells. The assay is described as follows: Cell proliferation and viability assays (CyQuant, CellTiter-Glo, CellTiter 96), NHDF (Example 5). The note with it: 48 hours. The text has this:
Multiple assays were used to test a variety of cellular properties expressed after exposure of different cells types to 5,6-dihydroxy-hexan-2-one. A cell proliferation assay available under the trade designation CyQuant from Invitrogen Corporation (Carlsbad, Calif.) determines the density of cells in culture by using a green fluorescent dye which fluoresces when bound to cellular nucleic acids. The amount of nucleic acid present is proportional to the amount of living cells in culture. […]
The amount of ATP present is proportional to the measured amount of a luminescent signal and therefore the amount of viable cells. […] The absorbance read is proportional to the amount of metabolic activity present in the cells.
Normal human dermal fibroblast (NHDF) cells and coronary artery smooth muscle cells (CASMC) in culture were exposed to 5,6-dihydroxy-hexan-2-one at concentrations of 10 microgram/ml, 1 mg/ml, and 10 mg/ml, for 48 hours, after which the cell culture wells were analyzed for cell proliferation and viability. […] FIG. 17 is a graphical representation of fibroblast cell numbers measured after 48 hours exposure to different concentrations of 5,6-dihydroxy-hexan-2-one. FIG. 18 is a graphical representation of smooth muscle cell numbers measured after 48 hours exposure to different concentrations of 5,6-dihydroxy-hexan-2-one. […]

For assay [2] the test system is unchanged. The assay is described as follows: Cell migration into scraped monolayer, NHDF (Example 5). The note with it: 1 and 10 mg/ml, 48 hours exposure then 72 hours growth. The method, then: In a similar manner, cell migration was explored in vitro by scraping the cell monolayer and culturing the cells in the presence of 5,6-dihydroxy-hexan-2-one at concentrations of 1 mg/ml and 10 mg/ml. FIGS. 20(a)-(l) are pictures that visually display the migration of coronary artery smooth muscle cells (CASMC) (FIGS. 20(a)-(f)) and normal human dermal fibroblast (NHDF) cells (FIGS. 20(g)-(l)) exposed to various concentrations of 5,6-dihydroxy-hexan-2-one after 48 hours exposure, then cultured an additional 72 hours after removal of the 5,6-dihydroxy-hexan-2-one as described in Example 5. Specifically, FIGS. 20(a) and (b) represent the CASMC control at time zero and 72 hours, respectively; FIGS. 20(c) and (d) represent CASMC (10 mg/ml) at time zero and 72 hours, respectively; and FIGS. 20(e) and (f) represent CASMC (1 mg/ml) at time zero and 72 hours, respectively. FIGS. 20(g) and (h) represent the NHDF cell control at time zero and 72 hours, respectively; FIGS. 20(i) and (j) represent NHDF cells (10 mg/ml) at time zero and 72 hours, respectively; and FIGS. 20(k) and (l) represent NHDF cells (1 mg/ml) at time zero and 72 hours, respectively.
Cell migration judged by the ability of cells to repopulate the scraped “acellular” space over time indicated no microscopically identifiable effect by the agent at the concentrations tested. […]

In assay [3] the test system is Normal Human Dermal Fibroblasts (NHDF). The assay is described as follows: Cell growth / cell counts of NHDF during exposure and 96 hours after removal (Example 4). The settings on record: for Cell Counts after exposure and additional 96 hours with compound removed: NHDF re-seeded at 45,000 cells/well; for cell growth during exposure, in words: 24 and 48 hours of exposure. The procedure: Examination of the cell growth effects upon 24 hour and 48 hour exposure of Normal Human Dermal Fibroblasts (NHDF) to 5,6-dihydroxy-hexan-2-one. After the 24 hour or 48 hour exposures, the 5,6-dihydroxy-hexan-2-one was removed and the cells were allowed to grow for an additional 96 hours, then evaluated for growth.
The assay used was a luminescent cell viability assay available under the trade designation CellTiter-Glo from Promega Corporation (Madison, Wis.). This assay determines the number of viable cells present based on the amount of adenosine triphosphate (ATP) present from the cell cytoplasm. The concentration of ATP present is proportional to the measured amount of a luminescent signal. […] The Normal Human Dermal Fibroblasts were available from Clonetics Corporation (San Diego, Calif.).
The 5,6-dihydroxy-hexan-2-one (1.2 grams) was dissolved in 12 ml of phosphate buffered saline and was filter sterilized through a 0.22 micrometer syringe filter prior to use. The 5,6-dihydroxy-hexan-2-one was further diluted to 10^−1, 10^−2, and 10^−3 using serial dilutions for the evaluation.
NHDF were seeded at 45,000 cells/well in four 24 well plates (two testing cell growth and two to re-seed after 24 and 48 hours without 5,6-dihydroxy-hexan-2-one). 24 hours after seeding, 5,6-dihydroxy-hexan-2-one was added to the cell culture plates (2 ml/well) at a concentration of 10^−1, 10^−2, and 10^−3. Assay plates were pulled for cell growth analysis at 24 and 48 hours after addition of the chemical compound. Samples were analyzed on the above-described assay according to a published method. The other two assay plates were washed and re-seeded at 45,000 cells/well at 24 and 48 hour time points without the presence of 5,6-dihydroxy-hexan-2-one. Both plates were grown for an additional 96 hours before a cell count was taken.
To determine proliferation potential post-exposure, cells were reseeded after exposure to 5,6-dihydroxy-hexan-2-one as follows. Additional groups of cells exposed to 5,6-dihydroxy-hexan-2-one for 24 and 48 hours were then washed thoroughly to remove 5,6-dihydroxy-hexan-2-one and harvested from the culture substrate. Those cells were then plated out at the same density as before, but without exposure to 5,6-dihydroxy-hexan-2-one. These two groups were supplied with fresh media and allowed to grow for 96 additional hours. Visual representation of the 10^−1 and 10^−2 groups can be seen in FIG. 15 (10^−1, re-seeded without 5,6-dihydroxy-hexan-2-one for 96 hours) and FIG. 16 (10^−2, re-seeded without 5,6-dihydroxy-hexan-2-one for 96 hours).

For `CC(=O)CCC(O)CO` (stereo not drawn) [5,6-dihydroxy-hexan-2-one], the cell proliferation result in assay [1] (10 mg/ml) was “inhibition of cell proliferation”; in assay [1] (other concentrations (10 microgram/ml, 1 mg/ml)), “did not show this effect”. Moreover, the cell migration entry in assay [2] is given as “not affected”. In addition, the “Cell Counts after exposure and additional 96 hours with compound removed” value in assay [3] (0.1 mg/ml, 24 Hour Group) was 200,000 cells; in assay [3] (0.1 mg/ml, 48 Hour Group) it was 207,500 cells; in assay [3] (1 mg/ml, 24 Hour Group), 172,000 cells; in assay [3] (1 mg/ml, 48 Hour Group), 165,000 cells; in assay [3] (10 mg/ml, 24 Hour Group), 55,000 cells; in assay [3] (10 mg/ml, 48 Hour Group) it was 65,000 cells. Further, the “Cell Counts after exposure” value in assay [3] (NHDF, 0.1 mg/ml, 24 Hour Group) is 180,000 cells; in assay [3] (NHDF, 0.1 mg/ml, 48 Hour Group) it was 305,000 cells; in assay [3] (NHDF, 1 mg/ml, 24 Hour Group) it was 160,000 cells; in assay [3] (NHDF, 1 mg/ml, 48 Hour Group) it was 150,000 cells; in assay [3] (NHDF, 10 mg/ml, 24 Hour Group), 65,000 cells; in assay [3] (NHDF, 10 mg/ml, 48 Hour Group) it was 80,000 cells. The “cell growth during exposure, in words” value in assay [3] (NHDF, 10^-1 concentration group) is on record as “only a minimal amount of growth”; in assay [3] (NHDF, 10^-2 concentration group) it was “reduced from the control”; in assay [3] (NHDF, 10^-3 concentration group), “continued to grow without problems”. For the same compound, the “cell growth after 96 hours without compound, in words” value is “significant inhibition of cell growth” in assay [3] (NHDF, 10^-1 group, after withdrawal) and “slight reduction of cell growth” in assay [3] (NHDF, 10^-2 group, after withdrawal). Besides, in assay [3] (NHDF, 10^-3 concentration (lowest tested), after withdrawal), the “cell growth after withdrawal, in words” value was “behave similar to controls”.
